Measured values published in ChEMBL document CHEMBL4049412, “Evolution of matrinic ethanol derivatives as anti-HCV agents from matrine skeleton” (Bioorg Med Chem Lett, 2017).

What was measured:
Hepatitis C virus = experiment: Antiviral activity against Hepatitis C virus infected in human Huh7.5 cells assessed as reduction in viral RNA level after 72 hrs by RT-PCR method; type: functional, cell-based, Hepacivirus hominis; settings: Huh7.5, 72 h
[1] = Selectivity index, ratio of CC50 for human Huh7.5 cells to EC50 for Hepatitis C virus infected in human Huh7.5 cells; type: toxicity, cell-based; settings: read-out: Ratio CC50/EC50
[2] = Cytotoxicity against human Huh7.5 cells after 72 hrs by MTT assay; type: cell-based
[3] = Acute toxicity in Kunming mouse administered as single oral dose measured for 7 days; settings: in vivo
[4] = Mean residence time in Sprague-Dawley rat at 25 mg/kg, po administered as single dose; type: ADME, organism-based; settings: in vivo
[5] = Tmax in Sprague-Dawley rat at 25 mg/kg, po administered as single dose; type: ADME, organism-based; settings: in vivo
[6] = Cmax in Sprague-Dawley rat at 25 mg/kg, po administered as single dose; type: ADME, organism-based; design: dose 25 mg/kg, route oral; settings: in vivo
[7] = Half life in Sprague-Dawley rat at 25 mg/kg, po administered as single dose; type: ADME, organism-based; settings: in vivo
[8] = AUC (0 to t) in Sprague-Dawley rat at 25 mg/kg, po administered as single dose; type: ADME, organism-based; settings: in vivo
[9] = AUC (0 to infinity) in Sprague-Dawley rat at 25 mg/kg, po administered as single dose; type: ADME, organism-based; design: dose 25 mg/kg, route oral, time infinity; settings: in vivo

| Structure (SMILES) | EC50 (Hepatitis C virus) [µM] | selectivity ratio [1] | CC50 at 72 h [2] [µM] | LD50 at 168 h [3] [mg/kg] | MRT [4] [h] | Tmax [5] [h] | Cmax [6] [nM] | half-life [7] [h] | AUC(0-t) [8] [µM·h] | AUC(0-inf) [9] [µM·h] |
| --- | --- | --- | --- | --- | --- | --- | --- | --- | --- | --- |
| COc1ccc(CN2C[C@@H]3CCCN4CCC[C@@H]([C@H]34)[C@H]2CCCC(=O)O)cc1 | 22.7 | > 22 | > 500 | – | – | – | – | – | – | – |
| O=C(O)C[C@@H]1[C@H]2CCCN3CCC[C@@H](CN1Cc1ccc(C(F)(F)F)cc1)[C@@H]23 | > 167 | – | 244 | – | – | – | – | – | – | – |
| COc1ccc(CN2C[C@@H]3CCCN4CCC[C@@H]([C@H]34)[C@H]2CCO)cc1 | 3.2 | 96.6 | 309 | > 250 | 1.6 | 0.33 | 310 | 2.08 | 0.5 | 0.56 |
| COC(=O)C[C@@H]1[C@H]2CCCN3CCC[C@@H](CN1C(=O)c1ccc(OC)cc1)[C@@H]23 | 3.03 | > 165 | > 500 | – | – | – | – | – | – | – |
| CCCN1C[C@@H]2CCCN3CCC[C@@H]([C@H]23)[C@H]1CCO | 4.95 | > 101 | > 500 | – | – | – | – | – | – | – |
| CCOc1ccc(CN2C[C@@H]3CCCN4CCC[C@@H]([C@H]34)[C@H]2CC(=O)OC)cc1OC | 8.06 | > 62 | > 500 | – | – | – | – | – | – | – |
| Cc1ccc(CN2C[C@@H]3CCCN4CCC[C@@H]([C@H]34)[C@H]2CC(=O)O)cc1 | 47.5 | > 10.5 | > 500 | – | – | – | – | – | – | – |
| O=C(O)C[C@@H]1[C@H]2CCCN3CCC[C@@H](CN1Cc1ccc([N+](=O)[O-])cc1)[C@@H]23 | 104 | > 4.81 | > 500 | – | – | – | – | – | – | – |
| COc1cccc(CN2C[C@@H]3CCCN4CCC[C@@H]([C@H]34)[C@H]2CCO)c1OC | 6.71 | 45.5 | 305 | – | – | – | – | – | – | – |
| OCC[C@@H]1[C@H]2CCCN3CCC[C@@H](CN1Cc1ccc(F)cc1F)[C@@H]23 | 5.18 | 41.9 | 217 | – | – | – | – | – | – | – |
| O=C(O)C[C@@H]1[C@H]2CCCN3CCC[C@@H](CN1Cc1ccc(Cl)c(Cl)c1)[C@@H]23 | 21.2 | 6.65 | 141 | – | – | – | – | – | – | – |
| COC(=O)C[C@@H]1[C@H]2CCCN3CCC[C@@H](CN1Cc1ccccc1C)[C@@H]23 | 7.14 | 32.2 | 230 | – | – | – | – | – | – | – |
| COc1ccc(C(=O)N2C[C@@H]3CCCN4CCC[C@@H]([C@H]34)[C@H]2CCCC(C)(C)O)cc1 | 24.6 | 14.7 | 362 | – | – | – | – | – | – | – |
| COC(=O)C[C@@H]1[C@H]2CCCN3CCC[C@@H](CN1Cc1ccc(F)cc1F)[C@@H]23 | 1.09 | 118 | 128 | – | – | – | – | – | – | – |
| O=C(O)C[C@@H]1[C@H]2CCCN3CCC[C@@H](CN1Cc1ccccc1)[C@@H]23 | 114 | > 4.39 | > 500 | – | – | – | – | – | – | – |
| CCOc1ccc(CN2C[C@@H]3CCCN4CCC[C@@H]([C@H]34)[C@H]2CCO)cc1OC | 5.36 | > 93.3 | > 500 | – | – | – | – | – | – | – |
| COC(=O)C[C@@H]1[C@H]2CCCN3CCC[C@@H](CN1Cc1ccc(OC)cc1)[C@@H]23 | 7.81 | 50.2 | 392 | > 250 | 2.25 | 0.5 | 360 | 6.36 | 0.67 | 0.69 |
| COc1ccc(CN2C[C@@H]3CCCN4CCC[C@@H]([C@H]34)[C@H]2CC(=O)O)cc1 | 27.6 | > 18.1 | > 500 | > 500 | 2.16 | 0.42 | 4960 | 2.54 | 8.59 | 8.59 |
| O=C(O)C[C@@H]1[C@H]2CCCN3CCC[C@@H](CN1Cc1ccncc1)[C@@H]23 | 47.2 | > 10.6 | > 500 | – | – | – | – | – | – | – |
| O=[N+]([O-])c1ccc(CN2C[C@@H]3CCCN4CCC[C@@H]([C@H]34)[C@H]2CCO)cc1 | 3.5 | 33.7 | 118 | – | – | – | – | – | – | – |
| Cc1cccc(CN2C[C@@H]3CCCN4CCC[C@@H]([C@H]34)[C@H]2CC(=O)O)c1 | 86.4 | > 5.78 | > 500 | – | – | – | – | – | – | – |
| COC(=O)C[C@@H]1[C@H]2CCCN3CCC[C@@H](CN1Cc1ccc(C)cc1)[C@@H]23 | 2.29 | 93.7 | 215 | – | – | – | – | – | – | – |
| CCCCN1C[C@@H]2CCCN3CCC[C@@H]([C@H]23)[C@H]1CCO | 2.58 | > 193 | > 500 | – | – | – | – | – | – | – |
